Earlier results in patent US8859761B2, “Refining process of Cefamandole sodium” (Hainan Lingkang Pharmaceutical Co., Ltd., priority 2011, dated 2014).

Cn1nnnc1SCC1=C(C(=O)[O-])N2C(=O)C(NC(=O)C(OC=O)c3ccccc3)C2SC1.[Na+] [Cefamandole nafate, sodium 7-D-(2-formyloxyphenylacetamide)-3-[(1-methyl-1H-tetrazol-5-yl)thiomethyl]-3-cephem-4-carboxylate]
solubility in ethanol (ethanol): almost insoluble | solubility in water (water): dissolves well
